These molecules were tested against human PRMT5/MEP50 (Homo sapiens (Human), UniProt O14744) (assay: PRMT5 chemiluminescent assay). Details: human PRMT5/MEP50 expressed in HEK293 cells; biotinylated histone peptides; Histone H4 monomethyl R3 antibody; chemiluminescent readout.
Chain of human PRMT5/MEP50 (O14744 whole entry): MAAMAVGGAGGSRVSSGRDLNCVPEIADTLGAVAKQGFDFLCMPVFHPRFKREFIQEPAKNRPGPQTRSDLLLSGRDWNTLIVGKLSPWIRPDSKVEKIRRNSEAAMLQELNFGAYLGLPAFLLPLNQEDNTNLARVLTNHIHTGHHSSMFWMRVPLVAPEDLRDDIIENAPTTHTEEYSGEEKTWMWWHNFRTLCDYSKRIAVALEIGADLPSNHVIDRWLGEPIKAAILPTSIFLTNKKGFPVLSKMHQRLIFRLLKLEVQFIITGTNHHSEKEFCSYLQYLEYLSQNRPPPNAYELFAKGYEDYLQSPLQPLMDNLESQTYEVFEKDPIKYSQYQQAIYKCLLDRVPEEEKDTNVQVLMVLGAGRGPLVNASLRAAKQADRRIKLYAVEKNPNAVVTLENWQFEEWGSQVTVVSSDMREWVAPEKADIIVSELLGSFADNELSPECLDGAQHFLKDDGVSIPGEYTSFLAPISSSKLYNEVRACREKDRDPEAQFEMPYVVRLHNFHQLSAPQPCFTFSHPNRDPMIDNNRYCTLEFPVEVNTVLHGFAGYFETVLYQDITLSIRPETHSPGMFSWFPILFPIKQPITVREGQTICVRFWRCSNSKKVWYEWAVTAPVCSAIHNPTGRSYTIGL
Chain of human PRMT5/MEP50 (Q9BQA1 whole entry partner): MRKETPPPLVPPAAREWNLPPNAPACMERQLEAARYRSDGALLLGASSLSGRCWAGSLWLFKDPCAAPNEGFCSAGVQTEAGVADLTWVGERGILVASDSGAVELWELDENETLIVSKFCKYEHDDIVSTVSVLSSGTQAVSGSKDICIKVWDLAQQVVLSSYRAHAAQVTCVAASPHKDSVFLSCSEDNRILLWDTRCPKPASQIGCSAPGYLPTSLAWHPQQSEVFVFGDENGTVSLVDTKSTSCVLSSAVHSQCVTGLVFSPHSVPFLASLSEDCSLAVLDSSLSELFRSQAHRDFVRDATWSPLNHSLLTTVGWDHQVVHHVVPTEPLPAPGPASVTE
Format: biochemical
Experimental: A PRMT5 chemiluminescent assay was used to measure the IC50 activity of PRMT5 of the compounds of Examples 1A to 7 above. Biotinylated histone peptides were synthesized and attached to 384-well plates. Compound serial dilutions were performed and added to the assay plate. Histone H4 monomethyl R3 antibody was obtained from Abcam. A master mix for each well was prepared and human PRMT5/MEP50 (expressed in HEK293 cells) diluted in assay buffer to a concentration of 5 ng/μL. The reaction was incubated and slowly rotated for 60 minutes at the point of PRMT5/MEP50 addition. The supernatant from the wells was removed and blocking buffer was added to each well and rotated for 10 minutes. The primary antibody was diluted and added to every well for 60 minutes, before it was removed and the wells washed. The horse raddish peroxidase (HRP)-coupled secondary antibody was diluted and added to each well with an incubation time of 30 minutes. The HRP chemiluminescent substrate was added to every well. The plate was read on a Flourstar Omega BMG Labtech instrument (Ortenberg, Germany) and the analysis of IC50 was performed using the Flourstar Omega BMG Labtech software.
Molecule `O=C(NC[C@H](O)CN1CCc2ccccc2C1)N1CCS[C@@H](c2ccccc2)C1` (single isomer, unassigned) [Example 5C, (S)-N-((S)-3-(3,4-dihydroisoquinolin-2(1H)-yl)-2-hydroxypropyl)-2-phenylthiomorpholine-4-carboxamide or (R)-N-((S)-3-(3,4-dihydroisoquinolin-2(1H)-yl)-2-hydroxypropyl)-2-phenylthiomorpholine-4-carboxamide] has an IC50 of 17 nM.
For `O=C(NC[C@H](O)CN1CCc2ccccc2C1)N1CCCSC(c2ccccc2)C1` (stereo partly drawn) [Example 1BN, N-((S)-3-(3,4-dihydroisoquinolin-2(1H)-yl)-2-hydroxypropyl)-2-phenyl-1,4-thiazepane-4-carboxamide], the IC50 was 104 nM.
`O=C(NC[C@H](O)CN1CCc2ccccc2C1)N1CCCC(n2cccn2)C1` (stereo partly drawn) [Example 1BK, N-((S)-3-(3,4-dihydroisoquinolin-2(1H)-yl)-2-hydroxypropyl)-3-(1H-pyrazol-1-yl)piperidine-1-carboxamide] gave an IC50 of 396 nM.
Molecule `O=C(NC[C@H](O)CN1CCc2ccccc2C1)N1CCC[C@H](c2ccccc2)C1` [Example 1AO, (R)-N-((S)-3-(3,4-dihydroisoquinolin-2(1H)-yl)-2-hydroxypropyl)-3-phenylpiperidine-1-carboxamide] has an IC50 of 9 nM.
`O=C(NC[C@@H](O)CN1CCc2ccccc2C1)N1CCC[C@@H](c2ccccc2)C1` [Example 1AI, (S)-N-((R)-3-(3,4-dihydroisoquinolin-2(1H)-yl)-2-hydroxypropyl)-3-phenylpiperidine-1-carboxamide] gave an IC50 of 3220 nM.
`O=C(NC[C@H](O)CN1CCc2ccccc2C1)N1CCC[C@H](c2ccccn2)C1` (single isomer, unassigned) [Example 5E, (S)-N-((S)-3-(3,4-dihydroisoquinolin-2(1H)-yl)-2-hydroxypropyl)-3-(pyridin-2-yl)piperidine-1-carboxamide or (R)-N-((S)-3-(3,4-dihydroisoquinolin-2(1H)-yl)-2-hydroxypropyl)-3-(pyridin-2-yl)piperidine-1-carboxamide] showed an IC50 of 81 nM.
Molecule `O=C(NCC(O)CN1CCc2ccccc2C1)N1CCC(Cc2ccccc2)CC1` (stereo not shown) [Example 1Q, 4-benzyl-N-(3-(3,4-dihydroisoquinolin-2(1H)-yl)-2-hydroxypropyl)piperidine-1-carboxamide] has an IC50 of 276 nM.
In the case of `CC(=O)N1CCN(C(=O)NCC(O)CN2CCc3ccccc3C2)CC1` (stereo not shown) [Example 1B, 4-acetyl-N-[2-hydroxy-3-(1,2,3,4-tetrahydroisoquinolin-2-yl)propyl]piperazine-1-carboxamide], the IC50 is reported as 9910 nM.
`O=C(OC[C@H](O)CN1CCc2ccccc2C1)N1CCc2ccccc2C1` [Example 4G, (R)-3-(3,4-dihydroisoquinolin-2(1H)-yl)-2-hydroxypropyl 3,4-dihydroisoquinoline-2(1H)-carboxylate] gave an IC50 of 8 nM.
`O=C(NC[C@H](O)CN1CCc2ccccc2C1)N1CCC[S+]([O-])CC1` (stereo partly drawn) [Example 1AU, N-((S)-3-(3,4-dihydroisoquinolin-2(1H)-yl)-2-hydroxypropyl)-1,4-thiazepane-4-carboxamide 1-oxide] was tested, and the IC50 was 31200 nM.
`O=C(NC[C@H](O)CN1CCc2ccccc2C1)N1CCC(N2CCSCC2)C1` (stereo partly drawn) [Example 1CE, N-((S)-3-(3,4-dihydroisoquinolin-2(1H)-yl)-2-hydroxypropyl)-3-thiomorpholinopyrrolidine-1-carboxamide] was tested, and the IC50 was 3100 nM.
Molecule `CN(C)C(=O)C1CN(C(=O)NCC(O)CN2CCc3ccccc3C2)C1` (stereo not shown) [Example 1V, N^1-(3-(3,4-dihydroisoquinolin-2(1H)-yl)-2-hydroxypropyl)-N^3,N^3-dimethylazetidine-1,3-dicarboxamide] has an IC50 of 8540 nM.
`O=C(NCC(O)CN1CCc2ccsc2C1)N1CCC(c2ccccc2)C1` (stereo not shown) [Example 1Af, N-(3-(4,7-dihydrothieno[2,3-c]pyridin-6(5H)-yl)-2-hydroxypropyl)-3-phenylpyrrolidine-1-carboxamide] was tested, and the IC50 was 749 nM.
With `O=C(NC[C@H](O)CN1CCc2ccccc2C1)N1CCCS(=O)(=O)C(c2ccccc2)C1` (stereo partly drawn) [Example 1BO, N-((S)-3-(3,4-dihydroisoquinolin-2(1H)-yl)-2-hydroxypropyl)-2-phenyl-1,4-thiazepane-4-carboxamide 1,1-dioxide] the IC50 was 1820 nM.
`O=C(NCCCN1CCc2ccccc2C1)N1CCC(c2ccccc2)C1` (stereo not shown) [Example 6A, N-(3-(3,4-dihydroisoquinolin-2(1H)-yl)propyl)-3-phenyl pyrrolidine-1-carboxamide] was tested, and the IC50 was 939 nM.
Molecule `O=C(NCC(O)CN1CCc2ccccc2C1)N1CCCN(Cc2ccccc2)CC1` (stereo not shown) [Example 1T, 4-benzyl-N-(3-(3,4-dihydroisoquinolin-2(1H)-yl)-2-hydroxypropyl)-1,4-diazepane-1-carboxamide] has an IC50 of 40 nM.
Molecule `O=C(NC[C@H](O)CN1CCc2ccccc2C1)N1CC[C@@H](c2ccccc2)C1` [Example 1CI, (S)-N-((S)-3-(3,4-dihydroisoquinolin-2(1H)-yl)-2-hydroxypropyl)-3-phenylpyrrolidine-1-carboxamide] has an IC50 of 27 nM.
Molecule `O=C(OCC(O)CN1CCc2sccc2C1)N1CCC(c2ccccc2)C1` (stereo not shown) [Example 4AE, 3-(6,7-dihydrothieno[3,2-c]pyridin-5(4H)-yl)-2-hydroxypropyl 3-phenylpyrrolidine-1-carboxylate] has an IC50 of 41 nM.
Work on `O=C(NC[C@H](O)CN1CCc2ccccc2C1)N1CCCC(C2CCOCC2)C1` (stereo partly drawn) [Example 1BZ, N-((S)-3-(3,4-dihydroisoquinolin-2(1H)-yl)-2-hydroxypropyl)-3-(tetrahydro-2H-pyran-4-yl)piperidine-1-carboxamide] yielded an IC50 of 270 nM.
Molecule `O=C(NCC(O)CN1CCc2ccsc2C1)N1CCCc2ccccc21` (stereo not shown) [Example 1Z, N-(3-(4,7-dihydrothieno[2,3-c]pyridin-6(5H)-yl)-2-hydroxypropyl)-3,4-dihydroquinoline-1(2H)-carboxamide] has an IC50 of 639 nM.
For `O=C(NCC(O)CN1CCc2ccccc2C1)N1CCCC(O)C1` (stereo not shown) [Example 1CK, N-(3-(3,4-dihydroisoquinolin-2(1H)-yl)-2-hydroxypropyl)-3-hydroxypiperidine-1-carboxamide], the IC50 was 329 nM.
`O=C(NCC(O)CN1CCc2ccccc2C1)N1CCCC(c2ccccc2)C1` (stereo not shown) [Example 1E, N-[2-hydroxy-3-(1,2,3,4-tetrahydroisoquinolin-2-yl)propyl]-3-phenylpiperidine-1-carboxamide] was tested, and the IC50 was 8 nM.
`CN(C)C(=O)C1CCN(C(=O)NC[C@H](O)CN2CCc3ccccc3C2)CC1` [Example 1AX, (S)-N^1-(3-(3,4-dihydroisoquinolin-2(1H)-yl)-2-hydroxypropyl)-N^4,N^4-dimethylpiperidine-1,4-dicarboxamide] was tested, and the IC50 was 588 nM.
Molecule `O=C(OCC(O)CN1CCc2ccccc2C1)N1CCCc2ccccc21` (stereo not shown) [Example 4AG, 3-(3,4-dihydroisoquinolin-2(1H)-yl)-2-hydroxypropyl 3,4-dihydroquinoline-1(2H)-carboxylate] has an IC50 of 360 nM.
For `O=C(OCC(O)CN1CCc2ccccc2C1)N1CCCCC1` (stereo not shown) [Example 3B, 2-hydroxy-3-(1,2,3,4-tetrahydroisoquinolin-2-yl)propyl piperidine-1-carboxylate], the IC50 was 613 nM.
Molecule `O=C(OC[C@H](O)CN1CCc2ccccc2C1)N1CC[C@@H](c2ccccc2)C1` [Example 4K, (R)-3-(3,4-dihydroisoquinolin-2(1H)-yl)-2-hydroxypropyl (S)-3-phenylpyrrolidine-1-carboxylate] has an IC50 of 20 nM.
`O=C(OCC(O)CN1CCc2ccccc2C1)N1CCc2ccccc2C1` (stereo not shown) [Example 3A, 3-(3,4-dihydroisoquinolin-2(1H)-yl)-2-hydroxypropyl 3,4-dihydroisoquinoline-2(1H)-carboxylate] gave an IC50 of 192 nM.
`O=C(OCC(O)CN1CCc2ccccc2C1)N1CCCC(O)C1` (stereo not shown) [Example 4I, 3-(3,4-dihydroisoquinolin-2(1H)-yl)-2-hydroxypropyl 3-hydroxypiperidine-1-carboxylate] showed an IC50 of 8830 nM.
`O=C(NC[C@H](O)CN1CCc2ccccc2C1)N1CCCC(c2cnccn2)C1` (stereo partly drawn) [Example 1BS, N-((S)-3-(3,4-dihydroisoquinolin-2(1H)-yl)-2-hydroxypropyl)-3-(pyrazin-2-yl)piperidine-1-carboxamide] gave an IC50 of 237 nM.
With `O=C(NCC(O)CN1CCc2ccccc2C1)N1CCCC(Oc2ccccc2)C1` (stereo not shown) [Example 1H, N-[2-hydroxy-3-(1,2,3,4-tetrahydroisoquinolin-2-yl)propyl]-3-phenoxypiperidine-1-carboxamide] the IC50 was 267 nM.
Molecule `O=C(NC[C@@H](O)CN1CCc2ccccc2C1)N1CCc2ccccc2C1` [Example 1AM, (R)-N-(3-(3,4-dihydroisoquinolin-2(1H)-yl)-2-hydroxypropyl)-3,4-dihydroisoquinoline-2(1H)-carboxamide] has an IC50 of 1500 nM.
In the case of `CN1CCN(C2CCCN(C(=O)NC[C@H](O)CN3CCc4ccccc4C3)C2)CC1` (stereo partly drawn) [Example 1BY, N-((S)-3-(3,4-dihydroisoquinolin-2(1H)-yl)-2-hydroxypropyl)-3-(4-methylpiperazin-1-yl)piperidine-1-carboxamide], the IC50 is reported as 2650 nM.
With `O=C(NC[C@H](O)CN1CCc2ccccc2C1)N1CCCN(C(=O)c2cccs2)CC1` [Example 1AW, (S)-N-(3-(3,4-dihydroisoquinolin-2(1H)-yl)-2-hydroxypropyl)-4-(thiophene-2-carbonyl)-1,4-diazepane-1-carboxamide] the IC50 was 7020 nM.
Molecule `O=C(NC[C@H](O)CN1CCc2ccccc2C1)N1CCCSCC1` [Example 1AT, (S)-N-(3-(3,4-dihydroisoquinolin-2(1H)-yl)-2-hydroxypropyl)-1,4-thiazepane-4-carboxamide] has an IC50 of 691 nM.
